Assay results published in US9365583B2, “Substituted pyrazoles and uses thereof” (Genentech, Inc., priority 2013, dated 2016).

Target: T1, N-terminally GST-tagged DLK (catalytic domain amino acid 1-520) (Homo sapiens, UniProt Q12852)
T1 construct: N-terminally GST-tagged DLK (catalytic domain amino acid 1-520); purchased Carna Bioscience
T1 sequence (Q12852 1-520): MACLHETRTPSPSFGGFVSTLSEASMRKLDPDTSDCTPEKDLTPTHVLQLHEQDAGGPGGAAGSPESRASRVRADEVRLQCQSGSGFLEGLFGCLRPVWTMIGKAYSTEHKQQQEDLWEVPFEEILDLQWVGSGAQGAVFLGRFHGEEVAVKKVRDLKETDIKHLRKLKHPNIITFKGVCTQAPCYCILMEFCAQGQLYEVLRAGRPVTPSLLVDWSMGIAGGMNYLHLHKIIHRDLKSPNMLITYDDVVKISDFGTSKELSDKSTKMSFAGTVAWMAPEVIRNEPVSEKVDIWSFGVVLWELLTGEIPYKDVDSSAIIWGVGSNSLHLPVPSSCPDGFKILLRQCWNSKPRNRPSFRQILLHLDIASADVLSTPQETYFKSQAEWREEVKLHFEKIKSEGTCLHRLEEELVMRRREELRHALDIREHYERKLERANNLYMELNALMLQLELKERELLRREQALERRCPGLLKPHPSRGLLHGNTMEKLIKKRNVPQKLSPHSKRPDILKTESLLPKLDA
Experiment: DLK TR-FRET inhibition assay
Format: biochemical
Settings: 5 nM GST-DLK, 40 nM HIS-MKK4 K131M substrate, 30 μM ATP, 60 minutes at ambient temperature
Procedure, shortened: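 5 nM GST-DLK (aa 1-520), 40 nM HIS-MKK4 K131M and 30 μM ATP reacted 60 min at ambient temperature in HEPES pH 7.5 buffer with 10 mM MgCl2, compound 1:3 serially diluted from 20 uM. TR-FRET detection of phospho-MKK4 used Eu-cryptate anti-phospho-MKK4 plus D2 anti-HIS, read after 3 h (665/615 nm).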

SMILES	Ki [nM]
CC(C)n1nc(-c2cnc(N)c(OC(F)F)c2)cc1[C@H]1[C@@H]2C[C@@H](N3CC4(CN(C)CCO4)C3)C[C@@H]21 [compound 224, 3-(difluoromethoxy)-5-(1-isopropyl-5-((1R,3s,5S,6r)-3-(8-methyl-5-oxa-2,8-diazaspiro[3.5]nonan-2-yl)bicyclo[3.1.0]hexan-6-yl)-1H-pyrazol-3-yl)pyridin-2-amine]	3.8
CC(C)n1nc(-c2cnc(N)c(OC(F)F)c2)cc1[C@H]1[C@@H]2C[C@H](N3CC4(CCCO4)C3)C[C@@H]21 [compound 225, 5-(5-((1R,3r,5S,6r)-3-(5-oxa-2-azaspiro[3.4]octan-2-yl)bicyclo [3.1.0]hexan-6-yl)-1-isopropyl-1H-pyrazol-3-yl)-3-(difluoro-methoxy)pyridin-2-amine]	4.2
CC(C)n1nc(-c2cnc(N)c(OC(F)(F)F)c2)cc1[C@H]1[C@@H]2C[C@H](N3CC4(CCCO4)C3)C[C@@H]21 [compound 226, 5-(5-((1R,3r,5S,6r)-3-(5-oxa-2-azaspiro[3.4]octan-2-yl)bicyclo [3.1.0]hexan-6-yl)-1-isopropyl-1H-pyrazol-3-yl)-3-(trifluoro-methoxy)pyridin-2-amine]	3.2
CC(C)n1nc(-c2cnc(N)c(C(F)(F)F)c2)cc1[C@H]1[C@@H]2C[C@H](N3CC4(CCCO4)C3)C[C@@H]21 [compound 227, 5-(5-((1R,3r,5S,6r)-3-(5-oxa-2-azaspiro[3.4]octan-2-yl)bicyclo [3.1.0]hexan-6-yl)-1-isopropyl-1H-pyrazol-3-yl)-3-(trifluoro-methyl)pyridin-2-amine]	4.5
CC(C)n1nc(-c2cnc(N)c(OC(F)F)c2)cc1[C@H]1[C@@H]2C[C@H](N3CC4(CN(C)CCO4)C3)C[C@@H]21 [compound 228, 3-(difluoromethoxy)-5-(1-isopropyl-5-((1R,3r,5S,6r)-3-(8-methyl-5-oxa-2,8-diazaspiro[3.5]nonan-2-yl)bicyclo[3.1.0]hexan-6-yl)-1H-pyrazol-3-yl)pyridin-2-amine]	2.8
CC(C)n1nc(-c2cnc(N)c(C(F)(F)F)c2)cc1[C@H]1[C@@H]2CC3(C[C@@H]21)CN(C)C(=O)CO3 (stereo partly drawn) [compound 229, (1R,5S,6r)-6-(3-(6-amino-5-(tri-fluoromethyl)pyridin-3-yl)-1-isopropyl-1H-pyrazol-5-yl)-4′-methylspiro[bicyclo[3.1.0]hexane-3,2′-morpholin]-5′-one]	3.9
CC(C)n1nc(-c2cnc(N)c(OC(F)F)c2)cc1[C@H]1[C@@H]2C[C@H](OC3COC3)C[C@@H]21 [compound 230, 3-(difluoromethoxy)-5-(1-iso-oprpyl-5-((1R,3r,5S,6r)-3-(oxetan-3-yloxy)bicyclo[3.1.0]hexan-6-yl)-1H-pyrazol-3-yl)pyridin-2-amine]	3.4
CC(C)n1nc(-c2cnc(N)c(OC(F)F)c2)cc1[C@H]1[C@@H]2C[C@@H](OC3COC3)C[C@@H]21 [compound 231, 3-(difluoromethoxy)-5-(1-iso-propyl-5-((1R,3s,5S,6r)-3-(oxetan-3-yloxy)bicyclo[3.1.0]hexan-6-yl)-1H-pyrazol-3-yl)pyridin-2-amine]	5.5
Nc1ncc(-c2cc([C@H]3[C@@H]4C[C@@H](N5CCCOCC5)C[C@@H]43)n(CC(F)F)n2)cc1OC(F)F [compound 232, 5-(5-((1R,3s,5S,6r)-3-(1,4-oxazepan-4-yl)bicyclo[3.1.0]hexan-6-yl)-1-(2,2-difluoroethyl)-1H-pyrazol-3-yl)-3-(difluoromethoxy) pyridin-2-amine]	1.1
Nc1ncc(-c2cc([C@H]3[C@@H]4C[C@H](N5CCCOCC5)C[C@@H]43)n(CC(F)F)n2)cc1OC(F)F [compound 233, 5-(5-((1R,3r,5S,6r)-3-(1,4-oxazepan-4-yl)bicyclo[3.1.0]hexan-6-yl)-1-(2,2-difluoroethyl)-1H-pyrazol-3-yl)-3-(difluoromethoxy) pyridin-2-amine]	1.8
CC(C)n1nc(-c2cnc(N)c(C(F)(F)F)c2)cc1[C@H]1[C@@H]2C[C@H](N3CCN[C@@H](C)C3)C[C@@H]21 [compound 234, 5-(1-isopropyl-5-((1R,3r,5S,6S)-3-((S)-3-methylpiperazin-1-yl)bicyclo[3.1.0]hexan-6-yl)-1H-pyrazol-3-yl)-3-(trifluoromethyl) pyridin-2-amine]	4.9
CC(C)n1nc(-c2cnc(N)c(C(F)(F)F)c2)cc1[C@H]1[C@@H]2C[C@@H](N3CCN[C@@H](C)C3)C[C@@H]21 [compound 235, 5-(1-isopropyl-5-((1R,3s,5S,6S)-3-((S)-3-methylpiperazin-1-yl)bicyclo[3.1.0]hexan-6-yl)-1H-pyrazol-3-yl)-3-(trifluoromethyl) pyridin-2-amine]	3.8
CC(C)n1nc(-c2cnc(N)c(OC(F)F)c2)cc1[C@H]1[C@@H]2C[C@@H](Cl)C[C@@H]21 [compound 236, 5-(5-((1R,3s,5S,6r)-3-chlorobicyclo [3.1.0]hexan-6-yl)-1-isopropyl-1H-pyrazol-3-yl)-3-(difluoro-methoxy)pyridin-2-amine]	15.8
CC(C)n1nc(-c2cnc(N)c(OC(F)(F)F)c2)cc1[C@H]1[C@@H]2C[C@@H](N3CCN(C)C[C@@H]3C)C[C@@H]21 [compound 237, 5-(5-((1R,3s,5S,6S)-3-((S)-2,4-dimethylpiperazin-1-yl)bicyclo [3.1.0]hexan-6-yl)-1-isopropyl-1H-pyrazol-3-yl)-3-(trifluoro-methoxy)pyridin-2-amine]	1.1
CC(C)n1nc(-c2cnc(N)c(OC(F)F)c2)cc1[C@H]1[C@@H]2C[C@H](N3CCN(C)C[C@@H]3C)C[C@@H]21 [compound 238, 3-(difluoromethoxy)-5-(5-((1R,3r,5S,6S)-3-((S)-2,4-dimethyl-piperazin-1-yl)bicyclo[3.1.0]hexan-6-yl)-1-isopropyl-1H-pyrazol-3-yl)pyridin-2-amine]	1.6
CC(C)n1nc(-c2cnc(N)c(C(F)(F)F)c2)cc1[C@H]1[C@@H]2C[C@@H](N3CCN(C)C[C@@H]3C)C[C@@H]21 [compound 239, 5-(5-((1R,3s,5S,6S)-3-((S)-2,4-dimethylpiperazin-1-yl)bicyclo [3.1.0]hexan-6-yl)-1-isopropyl-1H-pyrazol-3-yl)-3-(trifluoromethyl) pyridin-2-amine]	1.7
CC(C)n1nc(-c2cnc(N)c(OC(F)(F)F)c2)cc1[C@H]1[C@@H]2C[C@H](N3CCN(C)C[C@@H]3C)C[C@@H]21 [compound 240, 5-(5-((1R,3r,5S,6S)-3-((S)-2,4-dimethylpiperazin-1-yl)bicyclo [3.1.0]hexan-6-yl)-1-isopropyl-1H-pyrazol-3-yl)-3-(trifluoromethoxy) pyridin-2-amine]	2.1
CC(C)n1nc(-c2cnc(N)c(OC(F)F)c2)cc1[C@H]1[C@@H]2C[C@@H](N3CCN(C)C[C@@H]3C)C[C@@H]21 [compound 241, 3-(difluoromethoxy)-5-(5-((1R,3s,5S,6S)-3-((S)-2,4-dimethyl-piperazin-1-yl)bicyclo[3.1.0]hexan-6-yl)-1-isopropyl-1H-pyrazol-3-yl)pyridin-2-amine]	2
CC(C)n1nc(-c2cnc(N)c(C(F)(F)F)c2)cc1[C@H]1[C@@H]2C[C@H](N3CCN(C)C[C@@H]3C)C[C@@H]21 [compound 242, 5-(5-((1R,3r,5S,6S)-3-((S)-2,4-dimethylpiperazin-1-yl)bicyclo [3.1.0]hexan-6-yl)-1-isopropyl-1H-pyrazol-3-yl)-3-(trifluoromethyl) pyridin-2-amine]	2.1
Nc1ncc(-c2cc([C@H]3[C@@H]4C[C@@H](N5CCCOCC5)C[C@@H]43)n(CC(F)F)n2)cc1OC(F)(F)F [compound 243, 5-(5-((1R,3s,5S,6r)-3-(1,4-oxazepan-4-yl)bicyclo[3.1.0]hexan-6-yl)-1-(2,2-difluoroethyl)-1H-pyrazol-3-yl)-3-(trifluoromethoxy) pyridin-2-amine]	1.1
CC(C)n1nc(-c2cnc(N)c(OC(F)(F)F)c2)cc1[C@H]1[C@@H]2C[C@H](N3CCNCC3)C[C@@H]21 [compound 244, 5-(1-isopropyl-5-((1R,3r,5S,6r)-3-(piperazin-1-yl)bicyclo[3.1.0]hexan-6-yl)-1H-pyrazol-3-yl)-3 - (trifluoromethoxy)pyridin-2-amine]	1.1
CC(C)n1nc(-c2cnc(N)c(OC(F)(F)F)c2)cc1[C@H]1[C@@H]2C[C@@H](N3CCNCC3)C[C@@H]21 [compound 245, 5-(1-isopropyl-5-((1R,3s,5S,6r)-3-(piperazin-1-yl)bicyclo[3.1.0]hexan-6-yl)-1H-pyrazol-3-yl)-3-(trifluoromethoxy)pyridin-2-amine]	2.6
COC1CCN([C@@H]2C[C@@H]3[C@H](C2)[C@H]3c2cc(-c3cnc(N)c(OC(F)(F)F)c3)nn2C(C)C)CC1 [compound 246, 5-(1-isopropyl-5-((1R,3s,5S,6r)-3-(4-methoxypiperidin-1-yl)bicyclo[3.1.0]hexan-6-yl)-1H-pyrazol-3-yl)-3-(trifluoromethoxy) pyridin-2-amine]	1.8
